The results in this text go back to patent publication US4950602A, “Inhibition of lactate production by pyruvate adducts” (Cornell Research Foundation, Inc., priority 1987, dated 1990).

Data set [1] addresses T1, pyruvate dehydrogenase (Rattus norvegicus, UniProt P26284+P49432+Q6P6R2).
T1 construct: from tissue; host or cells: rat brain
Kind of data set: Rat brain pyruvate dehydrogenase with RAP. To be noted: 20 μM RAP. The data set is classed as biochemical. On the procedure:
(§1) Each of the enzymes was assayed by procedures in which change of absorbance at 340 nm due to NADH was followed essentially as described by Bergmeyer (1974, Methods of Enzymatic Analysis, 2nd Eng. Ed., Verlag Chemie Weinheim Academic Press, N.Y.) with the following exceptions. Phosphofructokinase was assayed according to the method of Lai et al (1984, J. Neurochem., 42:438-446). NAD^+ -linked isocitrate dehydrogenase was assayed as described by Lai and Clark (1976, Biochem. J., 154:423-432). Pyruvate and α-ketoglutarate dehydrogenase complexes were respectively assayed according to the methods of Lai and Sheu (1985, J. Neurochem., 45:1861-1868) and Lai and Cooper (1986) (J. Neurochem, 47:1376-1386).

For data set [2], the system named is lactate production from D-glucose in synaptosomes. Nature of the data set: Lactate production from D-glucose in rat brain synaptosomes. The data set is classed as cell-based. How it is done: FIG. 2 is a graphic presentation of inhibition of lactate production from D-glucose by rat brain postnuclear supernatant fraction and by synaptosoms incubated with RAP. Lactate production was determined for a 20-min incubation at 37° C. Values (expressed as % of the control rate) are mean±SD of 3-6 determinations. The control value was 8.1±0.9 nmol of lactate produced/min/mg protein, *P<0.05, **P<0.03 and ***P<0.005vs. control values.
Postnuclear supernatant fraction (containing the glycolytic enzymes) was prepared from rat brain according to the method of Lai et al (1984, supra). Rat brain synaptosomes were prepared according to the method of Lai et al (1980, Biochem. Pharmacol., 29:141-146). Lactate generated by these preparations in the presence of D-glucose was measured with lactate dehydrogenase as described by Lai et al (1984, supra), except that the concentrations of sodium phosphate buffer and nicotinamide used in the medium were respectively 5 and 20 mM. (In some cases where there was a carry over of appreciable RAP to the assay mix, ten times the recommended amount of lactate dehydrogenase was used and the effectiveness of the enzyme in converting lactate to pyruvate was checked by addition of lactate standards to the cuvette after the initial reaction was over).

Data set [3] has as its system lactate dehydrogenase. Nature of the data set: Determination of inactive E.RAP enzyme complex. To be noted: 2 μM initial concentration. The class given is biochemical, rat.
The target in data set [4] is T2, α-ketoglutarate dehydrogenase (Rattus norvegicus, UniProt Q5XI78+Q6P6R2).
T2 construct: following enzymes in rat brain subcellular fractions: α-ketoglutarate; from tissue; host or cells: rat brain subcellular fractions
Nature of the data set: Rat brain α-ketoglutarate dehydrogenase with RAP. To be noted: 20 μM RAP. The data set is classed as biochemical. On the procedure: as §1

The target of data set [5] is T3, mitochondrial malate dehydrogenase (Rattus norvegicus, UniProt P04636).
T3 construct: Commercial and rat brain glutamate dehydrogenases and mitochondrial malate dehydrogenases were only slightly; from tissue; host or cells: rat brain
Kind of data set: Rat brain mitochondrial malate dehydrogenase with RAP. The settings on record: 20 μM RAP. The class given is biochemical. On the procedure: as §1

Data set [6] concerns the target T4, hexokinase (Rattus norvegicus, UniProt P05708).
T4 construct: following enzymes in rat brain subcellular fractions: α-ketoglutarate, isocitrate and cytosolic malate dehydrogenases, and hexokinase; from tissue; host or cells: rat brain subcellular fractions
Kind of data set: Rat brain hexokinase with RAP. To be noted: 20 μM RAP. The data set is classed as biochemical. How it is done:
as §1

The test system of data set [7] is phosphofructokinase. Nature of the data set: Rat brain phosphofructokinase with RAP. The class given is biochemical. The settings on record: 20 μM RAP. How it is done: as §1
Data set [8] has as its target T5, cytosolic malate dehydrogenase (Rattus norvegicus, UniProt O88989).
T5 construct: following enzymes in rat brain subcellular fractions: α-ketoglutarate, isocitrate and cytosolic malate dehydrogenases; from tissue; host or cells: rat brain subcellular fractions
Nature of the data set: Rat brain cytosolic (soluble) malate dehydrogenase with RAP. The data set is classed as biochemical. To be noted: 20 μM RAP. On the procedure: as §1

Data set [9] has as its system rats. Nature of the data set: Effects of RAP in vivo, intravenous administration to rats. Also noted: species or system rat. To be noted: 20 μmole/kg. How it is done: Animals. Brain tissue was obtained from young adult male Wistar rats (45-50 days old). In one series of experiments, rats that had previously been fed ad libidum were anesthetized with 4% halothane and a V-3 cannula was inserted in the femoral vein. The animals were immobilized by taping them to a lead brick. After they had recovered sufficiently, they were injected with the RAP solution. After initial observation for any side-reactions, the rats were untaped and their wounds were closed under anesthesia. The rats were then placed back in their cages for further observation.
The animals survived for 3 weeks before being killed.

The subject of data set [10] is rat brain lactate dehydrogenase. Nature of the data set: Inhibition of rat brain lactate dehydrogenase (rat brain homogenate). To be noted: for Relative Activity (%) Rat Brain: rat brain homogenate, 0.24 mM pyruvate, 0.1 mM NADH, pH 7.2, 25° C. The class given is biochemical. On the procedure:
as §1
The reaction mixture (1 ml) contained 0.24 mM sodium pyruvate, 0.1 mM
NADH, 100 mM potassium phosphate buffer (pH 7.2) and either purified
bovine heart lactate dehydrogenase (0.01 U) or rat brain homogenate
containing ~0.02 U of lactate dehydrogenase activity; 25° C.
Since APADpyruvate adduct and RAP have a tendency to revert to pyruvate
they were added to the reaction mixture just prior to addition of enzyme.
Because the kinetics obtained with tightbinding inhibitors depends on the
order of addition of substrates and inhibitors the enzyme was always adde
last. Each value is the average of at least 3 determinations. Each of the […]

Data set [11] addresses T6, glutamate dehydrogenase (Rattus norvegicus, UniProt P10860).
T6 construct: Commercial and rat brain glutamate dehydrogenases; from tissue; host or cells: rat brain
Kind of data set: Rat brain glutamate dehydrogenase with RAP. The class given is biochemical. The settings on record: 20 μM RAP. How it is done: as §1

Data set [12] deals with T7, isocitrate dehydrogenase (Rattus norvegicus, UniProt Q99NA5).
T7 construct: following enzymes in rat brain subcellular fractions: α-ketoglutarate, isocitrate; from tissue; host or cells: rat brain subcellular fractions
Kind of data set: Rat brain isocitrate dehydrogenase with RAP. The data set is classed as biochemical. To be noted: 20 μM RAP. How it is done:
as §1

Data set [13] addresses T8, glyceraldehyde-3-phosphate dehydrogenase (Rattus norvegicus, UniProt P04797).
T8 construct: from tissue; host or cells: rat brain
Kind of data set: Rat brain glyceraldehyde-3-phosphate dehydrogenase with RAP. The class given is biochemical. The settings on record: 20 μM RAP. How it is done: as §1

Entries after “also recorded” stand apart in the source; their conditions may differ.

T6 sequence (P10860 54-558): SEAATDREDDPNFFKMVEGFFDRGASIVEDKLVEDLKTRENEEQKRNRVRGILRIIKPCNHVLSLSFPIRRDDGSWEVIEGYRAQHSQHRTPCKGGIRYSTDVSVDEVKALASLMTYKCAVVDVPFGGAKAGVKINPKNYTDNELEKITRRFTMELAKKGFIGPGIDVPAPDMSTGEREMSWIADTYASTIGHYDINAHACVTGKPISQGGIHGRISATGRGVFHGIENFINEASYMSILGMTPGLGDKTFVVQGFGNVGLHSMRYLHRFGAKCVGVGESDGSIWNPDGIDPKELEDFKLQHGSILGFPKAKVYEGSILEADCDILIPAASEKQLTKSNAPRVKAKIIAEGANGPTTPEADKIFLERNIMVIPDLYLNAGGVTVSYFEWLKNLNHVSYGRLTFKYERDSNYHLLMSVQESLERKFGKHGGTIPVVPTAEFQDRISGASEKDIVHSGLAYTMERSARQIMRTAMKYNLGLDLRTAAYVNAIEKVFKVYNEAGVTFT
T3 sequence (P04636 25-338): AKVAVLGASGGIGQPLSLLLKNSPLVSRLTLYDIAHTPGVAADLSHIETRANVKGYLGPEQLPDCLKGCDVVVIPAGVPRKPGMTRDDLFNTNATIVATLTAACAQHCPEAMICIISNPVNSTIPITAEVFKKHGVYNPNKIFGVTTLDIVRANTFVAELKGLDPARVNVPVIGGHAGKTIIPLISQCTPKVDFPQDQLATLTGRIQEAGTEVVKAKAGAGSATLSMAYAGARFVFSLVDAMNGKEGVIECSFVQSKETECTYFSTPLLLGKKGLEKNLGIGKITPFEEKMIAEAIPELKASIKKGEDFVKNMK
T4 sequence (P05708 whole entry): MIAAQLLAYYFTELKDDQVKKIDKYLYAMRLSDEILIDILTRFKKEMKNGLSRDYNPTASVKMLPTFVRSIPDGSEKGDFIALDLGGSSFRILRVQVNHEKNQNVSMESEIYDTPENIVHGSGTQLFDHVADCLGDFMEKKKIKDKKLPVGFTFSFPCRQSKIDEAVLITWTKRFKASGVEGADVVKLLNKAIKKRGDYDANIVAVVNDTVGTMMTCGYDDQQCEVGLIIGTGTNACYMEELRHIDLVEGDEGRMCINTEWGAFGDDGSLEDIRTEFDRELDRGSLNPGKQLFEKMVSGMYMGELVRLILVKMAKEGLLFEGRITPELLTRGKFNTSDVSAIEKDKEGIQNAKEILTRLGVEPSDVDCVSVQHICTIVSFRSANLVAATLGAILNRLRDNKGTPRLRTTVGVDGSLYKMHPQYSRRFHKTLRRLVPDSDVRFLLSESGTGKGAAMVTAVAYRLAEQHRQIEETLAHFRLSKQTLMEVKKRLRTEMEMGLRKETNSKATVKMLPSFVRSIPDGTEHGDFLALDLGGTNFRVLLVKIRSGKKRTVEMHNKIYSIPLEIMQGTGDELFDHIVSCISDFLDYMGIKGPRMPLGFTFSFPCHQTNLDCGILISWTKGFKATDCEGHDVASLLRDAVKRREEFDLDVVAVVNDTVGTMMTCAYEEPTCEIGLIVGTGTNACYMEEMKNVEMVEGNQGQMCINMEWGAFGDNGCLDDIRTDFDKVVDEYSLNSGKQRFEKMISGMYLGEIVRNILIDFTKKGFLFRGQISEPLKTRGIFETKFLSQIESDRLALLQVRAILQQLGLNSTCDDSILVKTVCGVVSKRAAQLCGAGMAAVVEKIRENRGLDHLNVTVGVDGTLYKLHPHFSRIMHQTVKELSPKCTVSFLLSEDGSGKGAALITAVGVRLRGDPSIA
T7 sequence (Q99NA5 28-366): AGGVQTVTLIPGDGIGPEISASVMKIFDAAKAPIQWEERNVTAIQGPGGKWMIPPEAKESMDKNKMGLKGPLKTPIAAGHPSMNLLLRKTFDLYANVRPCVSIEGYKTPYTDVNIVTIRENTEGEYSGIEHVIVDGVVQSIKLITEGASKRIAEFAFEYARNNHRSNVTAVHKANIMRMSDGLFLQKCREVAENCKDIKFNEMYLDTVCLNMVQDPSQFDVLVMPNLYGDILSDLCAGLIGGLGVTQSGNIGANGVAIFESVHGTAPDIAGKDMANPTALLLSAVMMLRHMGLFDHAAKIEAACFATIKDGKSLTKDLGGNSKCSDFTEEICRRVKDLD
T7 sequence (Q68FX0 35-385 partner): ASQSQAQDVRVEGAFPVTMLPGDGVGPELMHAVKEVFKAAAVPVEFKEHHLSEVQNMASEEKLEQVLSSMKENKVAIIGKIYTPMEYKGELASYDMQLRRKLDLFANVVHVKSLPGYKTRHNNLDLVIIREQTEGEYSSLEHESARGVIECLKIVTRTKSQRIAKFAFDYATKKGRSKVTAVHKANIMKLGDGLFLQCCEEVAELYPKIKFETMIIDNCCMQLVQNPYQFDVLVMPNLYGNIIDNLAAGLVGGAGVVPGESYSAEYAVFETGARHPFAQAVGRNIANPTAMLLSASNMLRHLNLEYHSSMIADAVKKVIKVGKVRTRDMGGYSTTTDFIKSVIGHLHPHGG
T7 sequence (P41565 40-393 partner): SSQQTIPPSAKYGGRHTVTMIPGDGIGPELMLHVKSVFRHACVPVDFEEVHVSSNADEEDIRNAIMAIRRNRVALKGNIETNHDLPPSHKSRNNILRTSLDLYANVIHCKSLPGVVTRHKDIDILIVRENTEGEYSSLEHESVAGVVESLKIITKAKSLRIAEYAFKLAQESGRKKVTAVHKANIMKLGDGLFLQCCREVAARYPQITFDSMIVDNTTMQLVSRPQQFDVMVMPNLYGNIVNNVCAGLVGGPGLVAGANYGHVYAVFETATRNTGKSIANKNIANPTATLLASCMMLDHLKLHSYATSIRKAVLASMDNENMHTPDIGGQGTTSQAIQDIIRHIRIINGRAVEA
T5 sequence (O88989 whole entry): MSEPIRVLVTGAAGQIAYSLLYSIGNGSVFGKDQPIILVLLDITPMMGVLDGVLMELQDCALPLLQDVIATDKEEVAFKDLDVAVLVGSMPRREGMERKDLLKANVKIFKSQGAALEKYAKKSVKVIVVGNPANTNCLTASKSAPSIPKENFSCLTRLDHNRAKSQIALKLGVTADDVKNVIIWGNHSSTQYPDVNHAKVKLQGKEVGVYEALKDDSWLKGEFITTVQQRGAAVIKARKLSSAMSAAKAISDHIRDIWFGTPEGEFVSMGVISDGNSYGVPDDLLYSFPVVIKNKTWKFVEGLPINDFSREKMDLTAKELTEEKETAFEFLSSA
T2 sequence (Q5XI78 41-1023): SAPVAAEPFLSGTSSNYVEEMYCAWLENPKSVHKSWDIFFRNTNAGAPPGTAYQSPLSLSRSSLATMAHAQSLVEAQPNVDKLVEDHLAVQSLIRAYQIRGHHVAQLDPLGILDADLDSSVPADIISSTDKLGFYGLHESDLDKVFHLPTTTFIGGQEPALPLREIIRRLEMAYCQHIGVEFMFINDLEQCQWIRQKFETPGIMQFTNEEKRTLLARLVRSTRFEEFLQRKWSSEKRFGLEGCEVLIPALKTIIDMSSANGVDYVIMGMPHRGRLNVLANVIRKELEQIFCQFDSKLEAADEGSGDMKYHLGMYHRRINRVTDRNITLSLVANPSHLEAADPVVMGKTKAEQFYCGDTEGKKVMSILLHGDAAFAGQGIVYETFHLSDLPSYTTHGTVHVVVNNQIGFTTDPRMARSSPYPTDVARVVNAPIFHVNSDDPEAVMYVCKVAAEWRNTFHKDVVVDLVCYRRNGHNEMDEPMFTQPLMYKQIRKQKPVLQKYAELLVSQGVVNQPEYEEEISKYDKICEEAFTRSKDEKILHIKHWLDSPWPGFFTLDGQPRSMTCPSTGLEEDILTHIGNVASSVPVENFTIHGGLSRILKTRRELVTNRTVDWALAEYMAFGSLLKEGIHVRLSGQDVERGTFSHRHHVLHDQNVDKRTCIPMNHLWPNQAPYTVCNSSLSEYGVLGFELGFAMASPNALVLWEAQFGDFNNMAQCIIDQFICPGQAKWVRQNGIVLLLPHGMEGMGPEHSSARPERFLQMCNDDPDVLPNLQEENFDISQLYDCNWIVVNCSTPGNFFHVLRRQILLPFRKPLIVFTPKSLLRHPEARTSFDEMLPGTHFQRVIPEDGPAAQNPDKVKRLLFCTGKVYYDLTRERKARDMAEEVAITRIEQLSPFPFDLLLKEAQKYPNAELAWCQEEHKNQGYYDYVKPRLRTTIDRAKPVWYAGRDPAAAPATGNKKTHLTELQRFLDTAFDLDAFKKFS
T2 sequence (Q01205 69-454 partner): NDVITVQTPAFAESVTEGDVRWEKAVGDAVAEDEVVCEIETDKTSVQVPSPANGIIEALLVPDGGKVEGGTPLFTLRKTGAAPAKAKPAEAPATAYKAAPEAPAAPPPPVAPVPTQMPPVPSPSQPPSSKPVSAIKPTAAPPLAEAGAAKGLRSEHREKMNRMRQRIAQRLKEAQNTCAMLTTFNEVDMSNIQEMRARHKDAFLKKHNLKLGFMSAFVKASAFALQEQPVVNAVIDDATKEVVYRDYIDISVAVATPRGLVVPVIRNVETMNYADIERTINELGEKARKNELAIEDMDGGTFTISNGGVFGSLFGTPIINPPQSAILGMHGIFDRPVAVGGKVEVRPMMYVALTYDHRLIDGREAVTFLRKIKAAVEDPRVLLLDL
T2 sequence (Q6P6R2 36-509): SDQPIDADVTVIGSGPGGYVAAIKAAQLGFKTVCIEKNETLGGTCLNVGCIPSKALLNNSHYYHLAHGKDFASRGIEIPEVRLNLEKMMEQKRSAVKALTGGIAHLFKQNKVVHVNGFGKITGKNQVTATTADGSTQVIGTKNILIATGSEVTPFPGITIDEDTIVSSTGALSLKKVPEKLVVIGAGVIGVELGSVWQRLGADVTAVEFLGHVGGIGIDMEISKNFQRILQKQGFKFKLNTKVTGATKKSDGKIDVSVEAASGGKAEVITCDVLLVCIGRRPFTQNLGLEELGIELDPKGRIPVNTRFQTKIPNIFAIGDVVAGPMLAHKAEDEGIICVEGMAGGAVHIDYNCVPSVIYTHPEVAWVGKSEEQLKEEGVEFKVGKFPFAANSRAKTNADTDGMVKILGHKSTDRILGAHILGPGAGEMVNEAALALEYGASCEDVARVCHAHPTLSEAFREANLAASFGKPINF

Usually inhibition stands for the drop in the measured response relative to a control, in per cent. As for `Nc1ncnc2c1ncn2[C@@H]1O[C@H](COP(=O)(O)OP(=O)(O)OC[C@H]2O[C@@H](N3C=CC(CC(=O)C(=O)O)C(C=O)=C3)[C@H](O)[C@@H]2O)[C@@H](O)[C@H]1O` (some centres unmarked) [RAP, 3(-4-(reduced 3-pyridinealdehyde-adeninedinucleotide))-pyruvate], the “effect on rat brain pyruvate dehydrogenase” value in [1] is listed as “little or no effect”. For the same molecule, the “inhibition of lactate production from glucose in synaptosomes compared with rat brain extracts” value in data set [2] was “less effective”. The “inhibition of lactate production in synaptosomes” value in data set [2] (initial concentrations of 250-500 μM) was 15-30%. For the same molecule, the “enzyme tied up as the inactive E.RAP complex” value in [3] was “approximately 90%”. In addition, the “effect on rat brain α-ketoglutarate dehydrogenase” value in data set [4] is recorded as “little or no effect; also recorded: did not inhibit”. In addition, in data set [5], the “effect on rat brain mitochondrial malate dehydrogenase” value is “little or no effect”. Also, the inhibition at 20 µM in data set [5] and in data set [11] was no more than 20% in each case. In [6], the “effect on rat brain hexokinase” value is “similarly unaffected; also recorded: did not inhibit”. Besides, the “effect on rat brain phosphofructokinase” value in data set [7] is on record as “similarly unaffected”. In [8], the “effect on rat brain cytosolic (soluble) malate dehydrogenase” value is recorded as “little or no effect; also recorded: did not inhibit”. Moreover, the “side effects as judged by gross inspection of behavior” value in data set [9] is listed as “no noticeable untoward effects; also recorded: no side effects were noted”. For the same molecule, in [9], the “survival before being killed” value amounted to 3 weeks. In [9] (3 weeks), the “growth and feeding after injection” value is “grew and fed normally”. The gross post-mortem examination entry in data set [9] (after 3 weeks) was “no obvious tissue damage”. In addition, the “Relative Activity (%) Rat Brain” value in data set [10] (additive 42 nM) is recorded as 80%; in data set [10] (additive 84 nM), 56%; in [10] (additive 132 nM), 43%; in data set [10] (additive 180 nM) it was 30%. Further, the IC50 in data set [10] (standard reaction of Table 1, read-out: concentration required to inhibit the standard reaction by 50%) was roughly 100 nM. The “effect on rat brain glutamate dehydrogenase” value in data set [11] is reported as “little or no effect”. For the same molecule, in [12], the “effect on rat brain isocitrate dehydrogenase” value was “little or no effect; also recorded: did not inhibit”. Besides, the “effect on rat brain glyceraldehyde-3-phosphate dehydrogenase” value in data set [13] was “little or no effect”.
